Data published in patent US20240199546A1, “INHIBITORS OF SOLUTE CARRIER FAMILY 6A MEMBER 19 (SLC6A19) AND METHODS OF USE THEREOF” (Maze Therapeutics, Inc., priority 2022, published 2024).

The compounds below were run against T1, human SLC6A19 and TMEM27 (Homo sapiens, UniProt Q695T7) (assay: Radiolabelled (3H) leucine uptake in CHO cells with doxycycline-inducible expression of human SLC6A19 and TMEM27 (Example B-1)). Settings: CHO cells with doxycycline-inducible expression of human SLC6A19 and TMEM27, read-out: SLC6A19_Radioligand Uptake Assay IC50.
T1 construct: expressed in transfected cells
T1 sequence (Q695T7 1-634): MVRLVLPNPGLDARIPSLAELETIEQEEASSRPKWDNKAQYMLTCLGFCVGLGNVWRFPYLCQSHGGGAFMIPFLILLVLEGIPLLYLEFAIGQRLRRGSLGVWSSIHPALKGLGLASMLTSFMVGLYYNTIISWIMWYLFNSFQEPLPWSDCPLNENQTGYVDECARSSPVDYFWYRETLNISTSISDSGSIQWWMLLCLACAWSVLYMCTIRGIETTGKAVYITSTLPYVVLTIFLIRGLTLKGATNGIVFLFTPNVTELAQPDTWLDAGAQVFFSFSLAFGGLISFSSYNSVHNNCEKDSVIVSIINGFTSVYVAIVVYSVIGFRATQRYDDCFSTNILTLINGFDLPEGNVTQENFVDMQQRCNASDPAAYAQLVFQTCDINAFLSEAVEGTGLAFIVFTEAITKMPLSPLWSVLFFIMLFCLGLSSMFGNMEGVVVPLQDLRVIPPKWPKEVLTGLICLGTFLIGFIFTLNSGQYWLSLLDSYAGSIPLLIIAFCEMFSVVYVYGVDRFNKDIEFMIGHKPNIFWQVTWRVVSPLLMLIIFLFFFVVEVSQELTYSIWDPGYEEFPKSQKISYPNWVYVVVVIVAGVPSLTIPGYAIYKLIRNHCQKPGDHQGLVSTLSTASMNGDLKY
T1 sequence (Q9HBJ8 15-222 partner): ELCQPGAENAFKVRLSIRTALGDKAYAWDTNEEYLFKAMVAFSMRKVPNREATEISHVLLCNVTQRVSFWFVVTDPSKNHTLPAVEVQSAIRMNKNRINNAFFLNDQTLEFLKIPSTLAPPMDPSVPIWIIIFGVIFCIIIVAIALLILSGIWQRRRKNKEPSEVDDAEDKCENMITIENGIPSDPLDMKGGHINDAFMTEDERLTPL
Format: cell-based
Outline: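 CHO cells were induced with doxycycline for 18 h at 37 °C, washed in HBSS, then exposed to compounds for 1 h: 8-point, 3-fold dilutions in duplicate, 0.5% DMSO final. Uptake measured by scintillation counting after 2 h shaking. Activity normalized with positive control as 0% and DMSO as 100%.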

Compared with O=C(NCc1cc2cc(Cl)c(OCc3cscn3)cc2[nH]1)C1CCCO1 (stereo not drawn) [Compound 268, N-((5-chloro-6-(thiazol-4-ylmethoxy)-1H-indol-2-yl)methyl)tetrahydrofuran-2-carboxamide], O=C(NCc1cc2cc(Cl)c(OCc3cscn3)cc2[nH]1)N1CC(O)C1 [Compound 367, N-((5-chloro-6-(thiazol-4-ylmethoxy)-1H-indol-2-yl)methyl)-3-hydroxyazetidine-1-carboxamide] is 2.9-fold higher in IC50: 0.421 µM for the first, 1.24 µM for the second.

Compared with O=C(CC(F)(F)F)NCc1cc2cc(Cl)c(OCc3cscn3)cc2[nH]1 [Compound 554, N-((5-chloro-6-(thiazol-4-ylmethoxy)-1H-indol-2-yl)methyl)-3,3,3-trifluoropropanamide], O=C(CC(F)(F)F)NCc1cc2cc(F)c(OCc3cscn3)cc2[nH]1 [Compound 568, 3,3,3-trifluoro-N-((5-fluoro-6-(thiazol-4-ylmethoxy)-1H-indol-2-yl)methyl)propanamide] is 1.6-fold higher in IC50: 0.214 µM for the first, 0.337 µM for the second. The first is the more potent here.

Going from CC1(C(=O)NCc2cc3cc(Cl)c(OCc4ncon4)cc3[nH]2)CC1 [Compound 319, N-((6-((1,2,4-oxadiazol-3-yl)methoxy)-5-chloro-1H-indol-2-yl)methyl)-1-methylcyclopropane-1-carboxamide] to COC(C)COc1cc2[nH]c(CNC(=O)C3(C)CC3)cc2cc1Cl (stereo not drawn) [Compound 454, N-((5-chloro-6-(2-methoxypropoxy)-1H-indol-2-yl)methyl)-1-methylcyclopropane-1-carboxamide], the IC50 rises from 0.273 µM to 0.787 µM (2.9-fold).

First: Cc1cc(COc2cc3[nH]c(CNC(=O)C4(F)CCOC4)cc3cc2Cl)on1 (stereo not drawn) [Compound 305, N-((5-chloro-6-((3-methylisoxazol-5-yl)methoxy)-1H-indol-2-yl)methyl)-3-fluorotetrahydrofuran-3-carboxamide]
Second: Cc1cc(COc2cc3[nH]c(CNC(=O)CC4(C)COC4)cc3cc2Cl)on1 [Compound 288, N-((5-chloro-6-((3-methylisoxazol-5-yl)methoxy)-1H-indol-2-yl)methyl)-2-(3-methyloxetan-3-yl)acetamide]
The IC50 of the first is 16-fold lower: 0.209 µM for the first, 3.26 µM for the second. The first is the more potent here.

Going from CC1(C(=O)NCc2cc3cc(Cl)c(OCC4CC(F)(F)C4)cc3[nH]2)CC1 [Compound 353, N-((5-chloro-6-((3,3-difluorocyclobutyl)methoxy)-1H-indol-2-yl)methyl)-1-methylcyclopropane-1-carboxamide] to CC1(C(=O)NCc2cc3cc(C4CC4(F)F)c(OCc4cscn4)cc3[nH]2)CC1 (stereo not drawn) [Compound 657, N-((5-(2,2-difluorocyclopropyl)-6-(thiazol-4-ylmethoxy)-1H-indol-2-yl)methyl)-1-methylcyclopropane-1-carboxamide], the IC50 falls from 1.93 µM to 0.654 µM (3-fold). The second is the more potent here.

Compared with CNC(=O)NCc1cc2cc(F)c(OCc3cc(C)no3)cc2[nH]1 [Compound 210, 1-((5-fluoro-6-((3-methylisoxazol-5-yl)methoxy)-1H-indol-2-yl)methyl)-3-methylurea], Cc1cc(COc2cc3[nH]c(CNC(=O)N4CCCC4)cc3cc2F)on1 [Compound 118, N-((5-fluoro-6-((3-methylisoxazol-5-yl)methoxy)-1H-indol-2-yl)methyl)pyrrolidine-1-carboxamide] is 3.8-fold higher in IC50: 0.293 µM for the first, 1.11 µM for the second.

Going from C[C@@H]1CCN(C(=O)NCc2cc3cc(F)c(OCc4cscn4)cc3[nH]2)C1 [Compound 387, (R)-N-((5-fluoro-6-(thiazol-4-ylmethoxy)-1H-indol-2-yl)methyl)-3-methylpyrrolidine-1-carboxamide] to CC1CCN(C(=O)NCc2cc3cc(F)c(OCc4ccon4)cc3[nH]2)C1 (stereo not drawn) [Compound 91, N-((5-fluoro-6-(isoxazol-3-ylmethoxy)-1H-indol-2-yl)methyl)-3-methylpyrrolidine-1-carboxamide], the IC50 rises from 0.209 µM to 0.524 µM (2.5-fold).

Compared with CO[C@H]1C[C@@H](Oc2cc3[nH]c(CNC(C)=O)cc3cc2Cl)C1 [Compound 463, N-((5-chloro-6-((cis)-3-methoxycyclobutoxy)-1H-indol-2-yl)methyl)acetamide], CC(=O)NCc1cc2cc(Cl)c(OCc3cc(C)on3)cc2[nH]1 [Compound 142, N-((5-chloro-6-((5-methylisoxazol-3-yl)methoxy)-1H-indol-2-yl)methyl)acetamide] is lower in IC50: > 8.73 µM for the first, 0.069 µM for the second. The second is the more potent here.

O=C(NCc1cc2cc(F)c(OCc3cocn3)cc2[nH]1)C1CC1 [Compound 428, N-((5-fluoro-6-(oxazol-4-ylmethoxy)-1H-indol-2-yl)methyl)cyclopropanecarboxamide] and O=C(NCc1cc2cc(F)c(OCc3cscn3)cc2[nH]1)C1(C(F)F)CC1 [Compound 569, 1-(difluoromethyl)-N-((5-fluoro-6-(thiazol-4-ylmethoxy)-1H-indol-2-yl)methyl)cyclopropane-1-carboxamide] are within 1.5-fold of each other in IC50: 0.161 µM for the first, 0.121 µM for the second.

CN(Cc1cn[nH]c1)C(=O)NCc1cc2cc(Cl)c(OCc3ccon3)cc2[nH]1 [Compound 629, 1-((1H-pyrazol-4-yl)methyl)-3-((5-chloro-6-(isoxazol-3-ylmethoxy)-1H-indol-2-yl)methyl)-1-methylurea] and CN(Cc1cn[nH]c1)C(=O)NCc1cc2cc(Cl)c(OCc3cscn3)cc2[nH]1 [Compound 626, 1-((1H-pyrazol-4-yl)methyl)-3-((5-chloro-6-(thiazol-4-ylmethoxy)-1H-indol-2-yl)methyl)-1-methylurea] are within 1.5-fold of each other in IC50: 1.07 µM for the first, 0.765 µM for the second.

Going from O=C(NCc1cc2cc(Cl)c(OCc3ccon3)cc2[nH]1)N1CCC1 [Compound 79, N-((5-chloro-6-(isoxazol-3-ylmethoxy)-1H-indol-2-yl)methyl)azetidine-1-carboxamide] to O=C(NCc1cc2cc(Cl)c(OCc3ccon3)cc2[nH]1)N1CCOCC1 [Compound 84, N-((5-chloro-6-(isoxazol-3-ylmethoxy)-1H-indol-2-yl)methyl)morpholine-4-carboxamide], the IC50 rises from 0.272 µM to 0.69 µM (2.5-fold).

First: CNC(=O)NCc1cc2cc(Cl)c(OCc3cc(C)on3)cc2[nH]1 [Compound 213, 1-((5-chloro-6-((5-methylisoxazol-3-yl)methoxy)-1H-indol-2-yl)methyl)-3-methylurea]
Second: Cc1cc(COc2cc3[nH]c(CNC(=O)CN)cc3cc2Cl)on1 [Compound 617, 2-amino-N-((5-chloro-6-((3-methylisoxazol-5-yl)methoxy)-1H-indol-2-yl)methyl)acetamide]
The IC50 of the first is 18-fold lower: 0.192 µM for the first, 3.52 µM for the second.

CC1(C(=O)NCc2cc3cc(Cl)c(SCc4ccon4)cc3[nH]2)CC1 [Compound 197, N-((5-chloro-6-((isoxazol-3-ylmethyl)thio)-1H-indol-2-yl)methyl)-1-methylcyclo propanecarboxamide] and CC1(C(=O)NCc2cc3cc(Cl)c(CCn4nccn4)cc3[nH]2)CC1 [Compound 586, N-((6-(2-(2H-1,2,3-triazol-2-yl)ethyl)-5-chloro-1H-indol-2-yl)methyl)-1-methylcyclopropane-1-carboxamide] are within 1.5-fold of each other in IC50: 0.154 µM for the first, 0.176 µM for the second.

Going from CC1(C(=O)NCc2cc3ccc(OCC45CC(C4)C5)cc3[nH]2)CC1 [Compound 189, N-((6-(bicyclo[1.1.1]pentan-1-ylmethoxy)-1H-indol-2-yl)methyl)-1-methylcyclopropane-1-carboxamide] to C[C@@H]1CCN1C(=O)NCc1cc2cc(Cl)c(OCc3ccon3)cc2[nH]1 [Compound 363, (R)-N-((5-chloro-6-(isoxazol-3-ylmethoxy)-1H-indol-2-yl)methyl)-2-methylazetidine-1-carboxamide], the IC50 falls from 9.83 µM to 0.332 µM (30-fold). The second is the more potent here.

Going from COC1CN(C(=O)NCc2cc3cc(Cl)c(OCc4cscn4)cc3[nH]2)C1 [Compound 364, N-((5-chloro-6-(thiazol-4-ylmethoxy)-1H-indol-2-yl)methyl)-3-methoxyazetidine-1-carboxamide] to O=C(NCc1cc2cc(Cl)c(OCc3cscn3)cc2[nH]1)C(F)CF (racemic) [Compound 639, N-((5-chloro-6-(thiazol-4-ylmethoxy)-1H-indol-2-yl)methyl)-2,3-difluoropropanamide], the IC50 falls from 0.69 µM to 0.112 µM (6.2-fold). The second is the more potent here.

Compared with Cc1cc(COc2cc3[nH]c(CNC(=O)C(F)(F)F)cc3cc2Cl)on1 [Compound 662, N-((5-chloro-6-((3-methylisoxazol-5-yl)methoxy)-1H-indol-2-yl)methyl)-2,2,2-trifluoroacetamide], Cc1cc(COc2cc3[nH]c(CNC(=O)CO)cc3cc2Cl)on1 [Compound 242, N-((5-chloro-6-((3-methylisoxazol-5-yl)methoxy)-1H-indol-2-yl)methyl)-2-hydroxyacetamide] is 5.5-fold higher in IC50: 0.123 µM for the first, 0.674 µM for the second.

Cc1cc(COc2cc3[nH]c(CNC(=O)N4CC(F)(F)C4)cc3cc2Cl)on1 [Compound 370, N-((5-chloro-6-((3-methylisoxazol-5-yl)methoxy)-1H-indol-2-yl)methyl)-3,3-difluoroazetidine-1-carboxamide] gave an IC50 of 0.486 µM.
